In brackets after ≈: the same amount, converted by molar mass. Several values for one entry are separate records, joined by “and”; a condition that tells them apart may be missing. Identical values can stand only once. Like-named read-outs stand apart in the source and are kept apart here.
Legend:
Haemophilus influenzae = system: Haemophilus influenzae
Procedure: (§1) Bacterial and fungal isolates used in this study were from various sources worldwide stored at GR Micro Ltd. and maintained, with minimal sub-culture, deep frozen at −70° C. as a dense suspension in a high protein matrix of undiluted horse serum.
(§2) Minimum inhibitory concentration (MIC) of LTX-109 was determined using the following microbroth dilution methods for antimicrobial susceptibility testing published by the Clinical and Laboratory Standards Institute (CLSI, formerly NCCLS): • M7-A6 Vol. 23 No. 2 Jan. 2003 Methods for Dilution Antimicrobial Susceptibility Tests for Bacteria that Grow Aerobically; Approved Standard-Sixth Edition. National Committee for Clinical Laboratory Standards. • M100-S15 Vol. 25 No 1. January 2005 Performance Standards for Antimicrobial Susceptibility Testing; Fifteenth Informational Supplement. Clinical and Laboratory Standards Institute • M11-A6 Vol. 24 No. 2 Methods for Antimicrobial Susceptibility Testing of Anaerobic Bacteria; Approved Standard-Sixth Edition. National Committee for Clinical Laboratory Standards. • M27-A2 Vol. 22 No. 15 Reference Method for Broth Dilution Antifungal Susceptibility Testing of Yeasts; Approved Standard-Second Edition. National Committee for Clinical Laboratory Standards. • M38-A Vol. 22 No. 16 Reference Method for Broth Dilution Antifungal Susceptibility Testing of Filamentous Fungi; Approved Standard. National Committee for Clinical Laboratory Standards.
MIC estimations were performed using wet plates, containing the LTX-109, prepared at GR Micro Ltd.
Following normal practice all the plates containing Mueller-Hinton broth were prepared in advance, frozen at −70° C. on the day of preparation and defrosted on the day of use. Fungal, Haemophilus and anaerobic MIC determinations were all performed in plates prepared on the same day.

Vero cells = conditions: 1% LTX-109 (w/v), 1 h, after filtration, no virus
Procedure: (§3) A parallel test where the same procedure was carried out in the absence of virus was included to determine any residual cytotoxic effect of the formulation on the assay cells.

Rhinovirus 60, 2268-CV37 = assay: TCID50 assay after 1 h incubation of virus with 1% LTX-109 (Example 6); format: cell-based
Pseudomonas aeruginosa = Pseudomonas aeruginosa - ATCC 27853 - antibiotic-susceptible type strain; three replicates (frozen and fresh MHB plates)
Procedure: as §1
as §2, with “Standard-Second Edition. […] National Committee” for “Standard-Second Edition. National Committee”, “Laboratory Standards.” for “Laboratory Standards. • M38-A Vol. 22 No. 16 Reference Method for Broth Dilution Antifungal Susceptibility Testing of Filamentous Fungi; Approved Standard. National Committee for Clinical Laboratory Standards.”
MIC estimations were performed using wet plates, containing the LTX-109, prepared at GR Micro Ltd. […]

[1] = system: Influenza A virus (IAV; A/WSN/33); format: cell-based
Hep2 cells = conditions: 1 h, after filtration, no virus
Procedure: as §3

Mycoplasma pneumoniae = system: Mycoplasma pneumoniae
Procedure: Two library strains of Mycoplasma pneumoniae were used. These strains were stored at GR Micro Ltd. and maintained, with minimal sub-culture, deep frozen at −70° C. as a dense suspension in a high protein matrix of undiluted horse serum.
MIC determination was carried out using a broth microdilution method in Mycoplasma Broth Base (Oxoid Ltd, Hampshire, UK), prepared according to the manufacturer's instructions.

For `CC(C)(C)c1cc(C(C)(C)C)c2[nH]c(C(C)(C)C)c(CC(NC(=O)C(N)CCCNC(=N)N)C(=O)NC(CCCNC(=N)N)C(=O)NCCc3ccccc3)c2c1` (centres unmarked) [LTX-109], the MIC (Haemophilus influenzae; Haemophilus influenzae - β-lactamase negative clinical isolate) was 8 mg/L (≈ 10.2 µM), the MIC (Haemophilus influenzae; Haemophilus influenzae - β-lactamase negative, ampicillin resistant) was 8 mg/L (≈ 10.2 µM) and the MIC (Haemophilus influenzae; Haemophilus influenzae - β-lactamase positive clinical isolate) was 8 mg/L (≈ 10.2 µM). For the same molecule, the “With Filtration (cytotoxicity)” value (Vero cells) was “Up to 10^−1”, the Log decrease (Rhinovirus 60, 2268-CV37; Rhinovirus, 1% LTX-109 or 0.25% SDS, 1 hour, compared to PBS control) was 1.9 log and the Percentage (Rhinovirus 60, 2268-CV37; decrease in Rhinovirus infectivity, 1% LTX-109 or 0.25% SDS, 1 hour, compared to PBS control) was 98.89%. It also gave a Log (Rhinovirus 60, 2268-CV37; log of Rhinovirus titre after 1 hour with 1% LTX-109 or 0.25% SDS) of 3.7, an MIC (Pseudomonas aeruginosa) of 8 mg/L (≈ 10.2 µM) and a Log [1] of 1.20. The Percentage [1] was 99.9% and 99.969%, the “With Filtration (cytotoxicity)” value (Hep2 cells; 0.1% LTX-109 (w/v)) was “No cytotoxicity” and the “With Filtration (cytotoxicity)” value (Hep2 cells; 1% LTX-109 (w/v)) was “Up to 10^−1”. For the same molecule, the MIC (Mycoplasma pneumoniae; one of the library strains of Mycoplasma pneumoniae) was 32 mg/L (≈ 40.6 µM) and the MIC (Mycoplasma pneumoniae; the other of the library strains of Mycoplasma pneumoniae) was 16 mg/L (≈ 20.3 µM).

From patent publication US20240148819A1, “COMPOUNDS FOR USE IN THE TREATMENT OF SINUSITIS, PNEUMONIA OR OTITIS” (PHARMA HOLDINGS AS, priority 2021, published 2024)
